Article PMC4226810 (Journal of pharmacokinetics and pharmacodynamics, 2014)
Where two headings read alike, the source gives them in different places.

How the values were obtained:
[1] = test system: Rb^S780 phosphorylation (biomarker of CDK4/6 activity); assay: Subcutaneous MOLM13 tumor cellular signaling: pRb; details: 50 mg/Kg QD multiple-day dosing, at 240 hr; baseline pRb(0) 82,600
MOLM13-Luc tumors = assay: Orthotopic tumor burden; format: in vivo, mouse; details: population mean
[2] = test system: STAT5^Y694 phosphorylation; assay: Orthotopic MOLM13-Luc tumor cellular signaling: pSTAT5; format: in vivo, mouse; details: model estimate (%RSE)
[3] = Plasma pharmacokinetics after oral administration in MOLM13 xenograft mice; format: in vivo, mouse; details: for Km: CrTac:NCR-Foxn1nu nude; for Vmax: Michaelis-Menten elimination; for Vmax / V: one compartment model
[4] = test system: STAT5^Y694 phosphorylation (biomarker of FLT3^ITD activity); assay: Subcutaneous MOLM13 tumor cellular signaling: pSTAT5; format: in vivo, mouse; details: for inhibition of phosphorylation of STAT5 at the time of maximum effect: subcutaneous tumor
[5] = Fraction unbound by modified ultra-filtration method; format: in vitro ADME; details: plasma
[6] = absorption rate constant fixed based on previous studies ref 21, cited from earlier work

Km ([3]; mouse, plasma, oral) | Vmax ([3]; estimate (%RSE)) | ka ([3]; absorption rate constant, estimate (%RSE)) | V ([3]; estimate (%RSE)) | ratio of IC50 on pSTAT5, subcutaneous xenograft over orthotopic xenograft ([4]; 27.7 nM vs 6.08 nM) | k el ([3]; CrTac:NCR-Foxn1^nu nude, mouse, plasma, oral) | fraction unbound [5] | ratio of IC50 for pSTAT5 inhibition to IC50 for pRb inhibition ([4]; subcutaneous tumor signaling model) | Compound | measured value of pRb (mean+/−sd) [1] | HR Hill coefficient (MOLM13-Luc tumors; pRb term of orthotopic tumor burden model) | HS Hill coefficient (MOLM13-Luc tumors; pSTAT5 term of orthotopic tumor burden model) | Hill coefficient of pSTAT5 inhibition (HAMG) [2] | measured value of pSTAT5 (mean+/−sd) ([4]; 50 mg/Kg QD multiple-day dosing, at 240 hr, baseline pSTAT5(0) 18,000) | inhibition of phosphorylation of STAT5 at the time of maximum effect ([4]; single dose 150mg/kg oral) | ka (Fixed) [6] | ka (Fixed) ([6]; listed as Sorafenib) | inhibition of phosphorylation of STAT5 at the time of maximum effect ([4]; single dose 10mg/kg oral)
0.0945 µM | 4.16 (3.1) nmol/h | 1.00 (20) h^−1 | 0.109 (7.4) L | 4 fold |  |  |  | C[C@H]1CC[C@H](n2c3cnccc3c3cnc(Nc4ccc5c(n4)CCN(C(=O)CO)C5)nc32)CC1 [AMG925] | 72870+/−1247 | 14.9 | 15.1 | 1.92 (4.9) | 17020+/−1133 | almost completely inhibit |  |  | 
 |  |  | 0.0964 (10) L |  | 5.31e-05 s⁻¹ | 0.0107 |  | CC(C)(C)c1cc(NC(=O)Nc2ccc(-c3cn4c(n3)sc3cc(OCCN5CCOCC5)ccc34)cc2)no1 [AC220, quizartinib] |  |  |  |  |  |  |  |  | 
0.00985 µM | 0.0736 (12) nmol/h |  | 0.0247 (4.4) L |  |  |  | 17 fold | CNC(=O)c1cc(Oc2ccc(NC(=O)Nc3ccc(Cl)c(C(F)(F)F)c3)cc2)ccn1 [sorafenib] |  |  |  |  |  |  | 3 h⁻¹ | 3 (Fixed) h^−1 | almost completely inhibit
